# Experimental data from EP1086695B1, “Antiviral compositions comprising yohimbine as active principle” (Leone, Enzo, priority 1999, dated 2001).
# Counter-ions that a name gives are not always drawn.
# How the values were obtained:
# herpes progenitalis = experiment: Example 4: treatment of herpes progenitalis in a serious form (single case); format: in vivo, person
# Procedure: The patient took 5 mg/day of yohimbine HCI for more than one year with three-week rest intervals every three months, using a galenical preparation consisting of: […]
# HSV-1 = conditions: against HSV-1 in their screening system; cited from earlier work
# [1] = tested on: herpetic keratoconjunctivitis; experiment: Example 2: clinical treatment of herpetic keratitis; format: in vivo, subjects
# From the text: These re-occurrences of acute episodes were, however, mastered with three-week cycles of treatment using the drug in question, with three-week rest intervals between one cycle and another.
# influenza = experiment: Example 3: clinical treatment of influenza syndromes; format: in vivo; conditions: 5 mg/day, 7-10 day treatment; including elderly patients and children
# herpes virus 1 or 2 = experiment: Example 1: clinical treatment of herpes; format: in vivo; conditions: 5 mg/day; 30 patients
# Procedure: In the course of 7 years, 30 patients suffering from herpes virus 1 or 2 were treated, the said patients still being currently under supervision.
# The treatment involved the use of 5 mg/day of yohimbine HCI until resolution of the dermatological affections.
# [2] = Doses effective as antiviral agent (general finding); format: in vivo; conditions: expressed as free base
# Procedure: The preferred dosage is 5 mg/day from the onset of the first signs of the viral infection up to its cure. In the case of long courses of treatment, it is preferable to follow a scheme of two- or three-month cycles with intervals of rest of 10-15 days. Higher doses than the range indicated may result in a failure of the curative effect, this being due to the peculiarity of yohimbine, observed on various organs and apparatus, namely of stimulating an action (for example, splenocontraction) at a certain dose level, and the opposite action (splenodilation) at higher dose levels. Doses below the limit indicated may be therapeutically ineffective.
smiles,measurement,setting,value
"COC(=O)[C@@H]1[C@H]2C[C@H]3c4[nH]c5ccccc5c4CCN3C[C@@H]2CC[C@@H]1O [yohimbine HCI, yohimbine hydrochloride]",side effect,herpes progenitalis; 5 mg/day for more than one year,did not reveal any side effect
same,lesions and vesicular eruptions,"herpes progenitalis; 5 mg/day tablet, three-week rest intervals every three months",within approximately six months led to the disappearance of the lesions and of the vesicular eruptions
same,recurrence,herpes progenitalis; follow-up after treatment,Only one other slight episode of recurrence occurred five years later
same,antiherpes activity,HSV-1,inactive
same,relapse,"[1]; 5 mg/day, 10 subjects",the cases of relapse were less frequent and of shorter duration
same,pain,"[1]; 5 mg/day, in periods when the affection became more acute",the pain involved became more tolerable
same,tolerability of treatment,"[1]; treatment lasting several years, three-week cycles",without any problems of any sort arising
same,outcome of influenza,influenza,complete resolution
same,relapse,herpes virus 1 or 2,considerable reduction in the number of cases of relapse
"COC(=O)[C@@H]1[C@H]2C[C@H]3c4[nH]c5ccccc5c4CCN3C[C@@H]2CC[C@@H]1O [yohimbine, methyl 17-alpha-hydroxy-20-alpha-yohimban-16-beta-carboxylate]",doses at which yohimbine is effective as antiviral agent,[2],3 to 10 mg/day
Nc1nc2c(ncn2COCCO)c(=O)[nH]1 [acyclovir],outcome of earlier treatment,herpes progenitalis; earlier treatment with specific drugs,unsuccessfully
same,benefit in terms of recidivation,[1]; earlier classic treatment of the same 10 subjects,without any benefit
